Test: xn = mol fraction of the nth substance listed

Oc1ccccc1Cl + CNc1ccccc1
viscosity [mPa·s], 101 kPa
Conditions | x1 = 0.1013 | x1 = 0.2024 | x1 = 0.3005 | x1 = 0.4032 | x1 = 0.5007 | x1 = 0.6027 | x1 = 0.7 | x1 = 0.7936 | x1 = 0.9042
298 K | 2.395 | 2.887 | 3.546 | 4.142 | 4.746 | 4.883 | 4.922 | 4.587 | 3.898
303 K | 2.112 | 2.493 | 2.984 | 3.445 | 3.801 | 3.963 | 3.966 | 3.715 | 3.352
308 K | 1.84 | 2.126 | 2.526 | 2.863 | 3.129 | 3.277 | 3.305 | 3.117 | 2.77
313 K | 1.622 | 1.826 | 2.115 | 2.42 | 2.678 | 2.75 | 2.793 | 2.704 | 2.506
318 K | 1.443 | 1.598 | 1.883 | 2.075 | 2.302 | 2.34 | 2.42 | 2.342 | 2.198

CCC(CC)CO + CO
298.15 K, 101.33 kPa
Conditions | viscosity [mPa·s]
x2 = 0.1241 | 4.806
x2 = 0.2054 | 4.143
x2 = 0.3133 | 3.38
x2 = 0.4534 | 2.454
x2 = 0.5051 | 2.214
x2 = 0.6004 | 1.744
x2 = 0.7073 | 1.33
x2 = 0.8019 | 1.041
x2 = 0.9015 | 0.7598

CCCCOC(C)=O + CO
303.15 K, 101.33 kPa
Conditions | viscosity [mPa·s]
x1 = 0.0963 | 0.528
x1 = 0.1331 | 0.533
x1 = 0.1759 | 0.539
x1 = 0.2825 | 0.552
x1 = 0.3931 | 0.566
x1 = 0.4804 | 0.577
x1 = 0.5458 | 0.585
x1 = 0.6116 | 0.592
x1 = 0.6478 | 0.596
x1 = 0.7391 | 0.606
x1 = 0.8007 | 0.612
x1 = 0.8409 | 0.616
x1 = 0.8858 | 0.621
x1 = 0.924 | 0.624

CCCN + CO
298.15 K, 100 kPa
Conditions | viscosity [mPa·s]
x2 = 0.0987 | 0.4013
x2 = 0.1995 | 0.4374
x2 = 0.2868 | 0.4756
x2 = 0.397 | 0.5323
x2 = 0.4985 | 0.5872
x2 = 0.5475 | 0.6104
x2 = 0.6249 | 0.6414
x2 = 0.6977 | 0.658
x2 = 0.8 | 0.652
x2 = 0.8982 | 0.6144
x2 = 0.9499 | 0.5827

CCC[n+]1ccccc1.F[B-](F)(F)F + CO
101 kPa
Conditions | viscosity [mPa·s]
303.15 K, x1 = 0.8956 | 59.95
323.15 K, x1 = 0.3918 | 4.475

O=C(O)c1cc(O)c(O)c(O)c1 + CO
viscosity [mPa·s], 101 kPa
Conditions | 293.15 K | 298.15 K | 303.15 K | 308.15 K | 313.15 K
x1 = 0.0019 | 0.634 | 0.595 | 0.551 | 0.517 | 0.491
x1 = 0.0038 | 0.664 | 0.62 | 0.576 | 0.542 | 0.505
x1 = 0.0058 | 0.699 | 0.66 | 0.604 | 0.562 | 0.528
x1 = 0.0078 | 0.734 | 0.684 | 0.635 | 0.591 | 0.55

Oc1ccccc1Cl + CO
Conditions | viscosity [mPa·s]
303.15 K, 101 kPa, x1 = 0.2447 | 1.911

CC(C)c1ccccc1 + COC(=O)c1ccccc1
viscosity [mPa·s], 101 kPa
Conditions | x2 = 0.1127 | x2 = 0.2209 | x2 = 0.3251 | x2 = 0.429 | x2 = 0.5302 | x2 = 0.6213 | x2 = 0.7199 | x2 = 0.8144 | x2 = 0.9082
303.15 K | 0.729 | 0.795 | 0.865 | 0.94 | 1.029 | 1.128 | 1.244 | 1.364 | 1.502
313.15 K | 0.649 | 0.694 | 0.75 | 0.819 | 0.883 | 0.961 | 1.044 | 1.132 | 1.235

CCCCOC(C)=O + COCCO
viscosity [mPa·s], 101 kPa
Conditions | x2 = 0.0967 | x2 = 0.1995 | x2 = 0.2988 | x2 = 0.3986 | x2 = 0.4983 | x2 = 0.6028 | x2 = 0.697 | x2 = 0.7987 | x2 = 0.9012
298.15 K | 0.703 | 0.736 | 0.787 | 0.841 | 0.922 | 1.01 | 1.13 | 1.285 | 1.48
303.15 K | 0.656 | 0.686 | 0.731 | 0.78 | 0.849 | 0.928 | 1.034 | 1.17 | 1.34
308.15 K | 0.615 | 0.641 | 0.68 | 0.723 | 0.785 | 0.855 | 0.948 | 1.066 | 1.217

CCCN + COCCO
viscosity [mPa·s]
Conditions | 293.15 K | 298.15 K
101 kPa, x2 = 0.0294 | – | 0.387
101 kPa, x2 = 0.0662 | – | 0.415
101 kPa, x2 = 0.0845 | – | 0.431
101 kPa, x2 = 0.1053 | – | 0.448
101 kPa, x2 = 0.1391 | – | 0.482
101 kPa, x2 = 0.1936 | – | 0.54
101 kPa, x2 = 0.2423 | – | 0.6
101 kPa, x2 = 0.2765 | – | 0.644
101 kPa, x2 = 0.321 | – | 0.708
101 kPa, x2 = 0.3635 | – | 0.775
101 kPa, x2 = 0.3989 | – | 0.835
101 kPa, x2 = 0.4418 | – | 0.909
101 kPa, x2 = 0.4845 | – | 0.974
101 kPa, x2 = 0.5165 | – | 1.031
101 kPa, x2 = 0.5599 | – | 1.106
101 kPa, x2 = 0.5942 | – | 1.166
101 kPa, x2 = 0.6575 | – | 1.265
101 kPa, x2 = 0.6877 | – | 1.309
101 kPa, x2 = 0.7452 | – | 1.384
101 kPa, x2 = 0.8042 | – | 1.442
101 kPa, x2 = 0.8424 | – | 1.47
101 kPa, x2 = 0.8852 | – | 1.495
101 kPa, x2 = 0.9064 | – | 1.505
101 kPa, x2 = 0.9584 | – | 1.522
101 kPa, x2 = 0.9794 | – | 1.527
101.3 kPa, x2 = 0.0502 | 0.396 | 0.38
101.3 kPa, x2 = 0.1009 | 0.435 | 0.415
101.3 kPa, x2 = 0.1501 | 0.479 | 0.453
101.3 kPa, x2 = 0.2002 | 0.533 | 0.501
101.3 kPa, x2 = 0.2504 | 0.599 | 0.559
101.3 kPa, x2 = 0.3 | 0.674 | 0.627
101.3 kPa, x2 = 0.3498 | 0.759 | 0.703
101.3 kPa, x2 = 0.3997 | 0.852 | 0.785
101.3 kPa, x2 = 0.4499 | 0.95 | 0.87
101.3 kPa, x2 = 0.4998 | 1.05 | 0.955
101.3 kPa, x2 = 0.5504 | 1.149 | 1.039
101.3 kPa, x2 = 0.6 | 1.241 | 1.116
101.3 kPa, x2 = 0.6498 | 1.325 | 1.186
101.3 kPa, x2 = 0.6999 | 1.4 | 1.249
101.3 kPa, x2 = 0.7495 | 1.462 | 1.304
101.3 kPa, x2 = 0.8 | 1.515 | 1.354
101.3 kPa, x2 = 0.8511 | 1.561 | 1.4
101.3 kPa, x2 = 0.8999 | 1.601 | 1.443
101.3 kPa, x2 = 0.9499 | 1.647 | 1.49

Reference: the CheMixHub viscosity set
